{"source": "paper PMC3086245", "about": "(Emerging Infectious Diseases, 2010)", "system": "M2 of influenza viruses A (H1N1)", "conditions": "almost all the ORVs"}
{"smiles": "NC12CC3CC(CC(C3)C1)C2", "note": "[amantadine]", "values": [{"measurement": "susceptibility by M2 sequencing (in words)", "value": "sensitive"}]}
